Data published in patent US12397518B2, “WS12-releasing contact lens” (CooperVision International Limited, priority 2021, dated 2025).

Tests used:
[1] = WS12 leaching into PBS packaging solution during autoclave (HPLC); type: physicochemical; settings: standard contact lens sterilization and storage conditions
Experimental: Silicone hydrogel contact lenses were prepared by curing the formulation for stenfilcon A in contact lens molds. The cured stenfilcon A was removed from the molds and extracted by immersing them for 215 minutes in ethanol (EtOH) containing WS12 (Tocris Bioscience) in the loading concentrations shown in Table I. The lenses were removed from the EtOH and washed in DI water for approximately 6 minutes, followed by two exchanges of DI water for approximately 30 minutes each. The lenses were transferred to 6 mL glass vials containing 3 mL phosphate buffered saline at pH 7.5 (0.78 wt. % NaCl, 0.05 wt. % sodium phosphate monobasic, and 0.36 wt. % sodium phosphate dibasic), referred to herein as PBS. The vials were sealed and autoclaved.
Each autoclaved lens was transferred to a vial containing 3 ml EtOH and stored overnight on a 150 rpm shaker at room temperature to extract WS12 from the lens. The EtOH extracts and the PBS in which the lenses were autoclaved were submitted for analysis by HPLC (detection wavelength=250 nm) against calibration standards to determine the average amount of WS12 loaded into each (n=5) and whether the WS12 leaches from the lens during autoclave.

[2] = biological target: transient receptor potential melastatin-8 (TRPM8) ion channels (Homo sapiens, UniProt Q7Z2W7); settings: background statement; cited from earlier work
Sequence of transient receptor potential melastatin-8 (TRPM8) ion channels (Q7Z2W7 whole entry, species assumed): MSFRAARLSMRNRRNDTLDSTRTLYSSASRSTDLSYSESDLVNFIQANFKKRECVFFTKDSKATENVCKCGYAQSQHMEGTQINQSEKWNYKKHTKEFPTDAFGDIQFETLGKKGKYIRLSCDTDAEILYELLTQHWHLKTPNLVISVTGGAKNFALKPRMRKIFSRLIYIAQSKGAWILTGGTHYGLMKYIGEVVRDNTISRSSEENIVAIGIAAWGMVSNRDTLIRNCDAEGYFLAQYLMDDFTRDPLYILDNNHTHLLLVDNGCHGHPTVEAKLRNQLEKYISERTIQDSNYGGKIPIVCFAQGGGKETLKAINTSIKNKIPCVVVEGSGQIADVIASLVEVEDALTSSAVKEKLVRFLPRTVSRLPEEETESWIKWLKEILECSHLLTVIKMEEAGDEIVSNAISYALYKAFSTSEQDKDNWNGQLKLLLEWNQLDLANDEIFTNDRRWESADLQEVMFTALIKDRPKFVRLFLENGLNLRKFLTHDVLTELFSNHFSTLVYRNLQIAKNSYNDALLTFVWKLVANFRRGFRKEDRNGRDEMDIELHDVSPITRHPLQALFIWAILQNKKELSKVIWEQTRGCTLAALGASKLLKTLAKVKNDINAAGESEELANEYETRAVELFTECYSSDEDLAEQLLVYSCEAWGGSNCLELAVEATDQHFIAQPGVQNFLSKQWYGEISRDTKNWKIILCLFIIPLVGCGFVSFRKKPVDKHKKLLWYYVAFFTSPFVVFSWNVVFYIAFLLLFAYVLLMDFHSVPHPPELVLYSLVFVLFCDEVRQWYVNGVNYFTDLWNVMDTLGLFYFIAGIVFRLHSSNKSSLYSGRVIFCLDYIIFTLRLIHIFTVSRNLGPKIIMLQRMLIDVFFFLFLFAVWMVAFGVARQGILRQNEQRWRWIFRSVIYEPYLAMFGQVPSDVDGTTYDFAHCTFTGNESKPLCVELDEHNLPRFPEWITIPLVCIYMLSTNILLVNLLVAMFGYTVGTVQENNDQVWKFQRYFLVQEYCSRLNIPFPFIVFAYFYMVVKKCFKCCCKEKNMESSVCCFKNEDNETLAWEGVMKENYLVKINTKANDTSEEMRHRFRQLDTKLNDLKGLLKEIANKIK

SMILES: COc1ccc(NC(=O)C2CC(C)CCC2C(C)C)cc1 (centres unmarked) [WS12, N-(4-Methoxyphenyl)-5-methyl-2-(1-methylethyl)cyclohexanecarboxamide]
- stability of WS12 in hydrogel contact lens material [1]: without degradation or leaching
- activation of TRPM8 ion channels [2]: selectively activates
